Assay results as given in paper PMC5845004, “Novel (p)ppGpp Binding and Metabolizing Proteins of Escherichia coli” (mBio, 2018).
Values joined by “and” are separate entries in the source; they are usually repeats but may differ in a detail not shown here. Equal values may be shown once. “Also recorded” adds a separate entry of the source.

Experiments:
Hpt = Hpt (Escherichia coli, UniProt P0A9M2); test: DRaCALA Kd determination, purified Hpt; format: binding, E. coli; conditions: 2 nM 32P-labeled ligand, read-out: apparent Kd, Hpt
Method: (§3) For Kd measurements by DRaCALA, 2-fold serial dilutions from the highest possible concentrations of each purified protein were prepared in binding buffer B, and approximately 2 nM concentrations of α-^32P-labeled ppGpp, pppGpp, GTP, and GDP were added. The mixtures were incubated for 5 min at RT before spotting of 2 µl of the reaction mixtures onto nitrocellulose membranes. The fractions of bound ligand and the apparent Kd values were calculated as previously described ([37]). For competition assays, purified proteins at the specified concentrations were incubated with 2 nM [α-^32P]ppGpp or [α-^32P]pppGpp in the presence of 100 μM competitor nucleotides in binding buffer B. The reaction mixtures were incubated for 5 min at RT, 2 µl was spotted onto nitrocellulose membranes, and the values corresponding to the bound fractions were determined. EDTA was added at excess concentrations as specified for each case.

NudG = target: T1, NudG (Escherichia coli, UniProt P77788); test: In vitro cleavage assay (TLC), NudG; format: biochemical, E. coli; conditions: purified NudG, buffer B with 10 mM MgCl2, TLC
T1 construct: expressed in transfected cells; host or cells: E. coli ASKA collection strain, IPTG-induced, whole-cell lysate
Method: (§1) The purified His6-MutT and His6-NudG proteins were tested for their relative levels of cleavage of ppGpp compared to those seen with their native substrates. For this, a 1 μM concentration of each protein and a 10 nM concentration of [α-^32P]ppGpp were used together with 100 μM concentrations of cold competitors [ppGpp, GTP, ATP, 8-oxo-(d)GTP, 2-hydroxyl-(d)ATP] or 50 mM EDTA in buffer B. The samples were incubated at 30°C for 10 min and for 1 h before the reactions were stopped by adding 50 mM EDTA. The cleavage products were resolved by TLC as described above. The purified His6-NadR and His6-TrmE proteins were tested for their cleavage of both GTP and ppGpp. For cleavage of GTP, 10 μM concentrations of His6-MBP, His6-TrmE, and 20 μM His6-NadR proteins were used with 2 nM [α-^32P]GTP and 100 μM cold GTP in buffer B. For cleavage of ppGpp, 10 μM concentrations of His6-TrmE, His6-MBP, and His6-NadR proteins were used with 10 nM [α-^32P]ppGpp in buffer B. Of note, for His6-TrmE, another reaction was also performed in buffer B supplemented with 100 mM KCl. The reactions were performed at RT for 10 min and were stopped by adding 17% formic acid. The cleavage products were resolved by TLC as described above.
A 20 μM concentration of each of purified proteins MutT, NudG, NadR, TrmE, and MBP (as a negative control) was incubated with 100 μM ppGpp in buffer B (containing 40 mM Tris [pH 7.5], 100 mM NaCl, and 10 mM MgCl2) for 20 min at room temperature. Samples were snap-frozen on dry ice and analyzed with UPLC-MS afterward. All samples and buffers were stored at −80°C, thawed on ice, and kept at 4°C during analysis. For the analysis, a UPLC-quadrupole time of flight (UPLC-qTOF) method (Waters) was used. Analysis conditions were as follows: column, zic-HILIC (Merck Millipore) (150 by 2.1 mm, […], gradient elution, flow rate set to 0.3 ml/min); mobile phase A, 10 mM ammonium acetate (pH 5); mobile phase B, 90% acetonitrile with 10 mM ammonium acetate (pH 5). The gradient was set up as follows: min 0 to 2, 80% B; min 2 to 16, 80% B to 50% B; hold until min 20; injection volume, 4 µl. The detection conditions were as follows: photodiode array detector (PDA), […] (evaluated at 260 nm); MS, ionization; electrospray ionization (ESI+), scan, 200 to 800 m/z with lock mass correction. Analytes were identified by their accurate mass and retention time data for a known standard dissolved in used buffer (for the chemicals of the same nominal masses). These standards were either synthesized and their structures confirmed by nuclear magnetic resonance (NMR) (for ppGp, pGpp, and pGp) or purchased (ppGpp was purchased from Jena Biocsience and GTP from Sigma-Aldrich).

PPX = target: PPX; set-up: method as in ref 35 (Table S1 ref 20); conditions: competitive; ref 35 (Table S1 ref 20); read-out: inhibitory constant Ki, PPX; cited from earlier work
ObgE [1] = target: T2, ObgE (Escherichia coli, UniProt P42641); test: DRaCALA Kd determination, purified ObgE; format: binding, E. coli; conditions: 2 nM 32P-labeled ligand, read-out: apparent Kd, ObgE (converted)
Method: (§4) For Kd measurements by DRaCALA, 2-fold serial dilutions from the highest possible concentrations of each purified protein were prepared in binding buffer B, and approximately 2 nM concentrations of α-^32P-labeled ppGpp, pppGpp, GTP, and GDP were added. The mixtures were incubated for 5 min at RT before spotting of 2 µl of the reaction mixtures onto nitrocellulose membranes. The fractions of bound ligand and the apparent Kd values were calculated as previously described ([37]).

GppA = system: GppA; set-up: method as in Table S1 (17); conditions: ref Table S1 (17); cited from earlier work
HflX = target: HflX; set-up: method as in Table S1 (4); conditions: ref Table S1 (4); read-out: Kd, S. aureus HflX (converted); cited from earlier work
HprT = target: HprT; set-up: method as in ref 39 (Table S1 ref 4); conditions: ref 39 (Table S1 ref 4); read-out: Kd, S. aureus HprT; cited from earlier work
Era = target: Era; set-up: method as in Table S1 (4); conditions: ref Table S1 (4); read-out: Kd, S. aureus Era (converted); cited from earlier work
RF3 (PrfC) = RF3 (PrfC) (Escherichia coli, UniProt P0A7I4); test: DRaCALA Kd determination, purified RF3; format: binding, E. coli; conditions: 2 nM 32P-labeled ligand, read-out: apparent Kd, RF3 (PrfC)
Method: as §4

TrmE = TrmE (Escherichia coli, UniProt P25522); test: In vitro cleavage assay (TLC), TrmE; format: biochemical, E. coli; conditions: 10 µM TrmE, buffer B, with 100 mM potassium where stated, 10 min
Method: as §1
(§2) A 20 μM concentration of each of purified proteins MutT, NudG, NadR, TrmE, and MBP (as a negative control) was incubated with 100 μM ppGpp in buffer B (containing 40 mM Tris [pH 7.5], 100 mM NaCl, and 10 mM MgCl2) for 20 min at room temperature. Samples were snap-frozen on dry ice and analyzed with UPLC-MS afterward. All samples and buffers were stored at −80°C, thawed on ice, and kept at 4°C during analysis. For the analysis, a UPLC-quadrupole time of flight (UPLC-qTOF) method (Waters) was used. […] The detection conditions were as follows: photodiode array detector (PDA), […] (evaluated at 260 nm); MS, ionization; electrospray ionization (ESI+), scan, 200 to 800 m/z with lock mass correction. […]

[2] = target: SaRF3 (PrfC from S. aureus) (Staphylococcus aureus, UniProt A6QFN0); test: DRaCALA binding, SaRF3; conditions: 12 µM protein
Gpt = Gpt (Escherichia coli, UniProt P0A9M5); set-up: method as in ref 29-32 (Table S1 refs 1, 2); conditions: ref 29-32 (Table S1 refs 1, 2); cited from earlier work
Gmk = system: Gmk; set-up: method as in Table S1 (3); conditions: ref Table S1 (3); read-out: IC50, B. subtilis Gmk; cited from earlier work
LepA = LepA (Escherichia coli, UniProt P60785); test: DRaCALA binding curves, purified LepA; set-up: species or system E. coli; conditions: Kd could not be determined
Method: as §3

SpeC = target: SpeC; set-up: method as in Table S1 (19); conditions: ref Table S1 (19); cited from earlier work
ObgE [3] = target: T2, ObgE; set-up: method as in Table S1 (7); conditions: ref Table S1 (7); cited from earlier work
SaDer = SaDer (Staphylococcus aureus, UniProt A6QH24); test: DRaCALA Kd determination, SaDer; format: binding, S. aureus
Method: as §4

NadR = NadR (Escherichia coli, UniProt P27278); test: In vitro cleavage assay (TLC), NadR; format: biochemical, E. coli; conditions: 10-20 µM NadR, buffer B with 100 mM NaCl, 10 min
Method: The purified His6-MutT and His6-NudG proteins were tested for their relative levels of cleavage of ppGpp compared to those seen with their native substrates. For this, a 1 μM concentration of each protein and a 10 nM concentration of [α-^32P]ppGpp were used together with 100 μM concentrations of cold competitors [ppGpp, GTP, ATP, 8-oxo-(d)GTP, 2-hydroxyl-(d)ATP] or 50 mM EDTA in buffer B. The samples were incubated at 30°C for 10 min and for 1 h before the reactions were stopped by adding 50 mM EDTA. The cleavage products were resolved by TLC as described above. The purified His6-NadR and His6-TrmE proteins were tested for their cleavage of both GTP and ppGpp. […]
as §2, with “afterward.” for “afterward. All samples and buffers were stored at −80°C, thawed on ice, and kept at 4°C during analysis. For the analysis, a UPLC-quadrupole time of flight (UPLC-qTOF) method (Waters) was used.”

T2 sequence (P42641 whole entry): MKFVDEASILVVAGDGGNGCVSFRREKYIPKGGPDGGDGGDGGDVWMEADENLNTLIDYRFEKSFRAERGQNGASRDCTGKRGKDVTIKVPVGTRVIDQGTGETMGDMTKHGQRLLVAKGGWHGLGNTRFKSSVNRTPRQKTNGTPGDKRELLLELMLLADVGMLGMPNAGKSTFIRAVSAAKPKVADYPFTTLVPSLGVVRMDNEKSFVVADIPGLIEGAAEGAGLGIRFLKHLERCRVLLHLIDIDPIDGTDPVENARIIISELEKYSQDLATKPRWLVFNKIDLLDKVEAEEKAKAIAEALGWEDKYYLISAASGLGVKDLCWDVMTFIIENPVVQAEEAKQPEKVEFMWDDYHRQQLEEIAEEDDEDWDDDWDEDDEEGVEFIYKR
T1 sequence (P77788 whole entry): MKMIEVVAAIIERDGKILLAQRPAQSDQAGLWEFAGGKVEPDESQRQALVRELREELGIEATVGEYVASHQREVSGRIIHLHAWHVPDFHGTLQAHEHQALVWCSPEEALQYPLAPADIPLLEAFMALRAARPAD
Gpt, sequence (P0A9M5 whole entry): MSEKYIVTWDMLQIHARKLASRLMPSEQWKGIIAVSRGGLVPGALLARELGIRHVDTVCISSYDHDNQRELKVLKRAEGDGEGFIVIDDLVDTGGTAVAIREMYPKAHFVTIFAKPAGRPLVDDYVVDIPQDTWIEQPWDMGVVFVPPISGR
LepA, sequence (P60785 whole entry): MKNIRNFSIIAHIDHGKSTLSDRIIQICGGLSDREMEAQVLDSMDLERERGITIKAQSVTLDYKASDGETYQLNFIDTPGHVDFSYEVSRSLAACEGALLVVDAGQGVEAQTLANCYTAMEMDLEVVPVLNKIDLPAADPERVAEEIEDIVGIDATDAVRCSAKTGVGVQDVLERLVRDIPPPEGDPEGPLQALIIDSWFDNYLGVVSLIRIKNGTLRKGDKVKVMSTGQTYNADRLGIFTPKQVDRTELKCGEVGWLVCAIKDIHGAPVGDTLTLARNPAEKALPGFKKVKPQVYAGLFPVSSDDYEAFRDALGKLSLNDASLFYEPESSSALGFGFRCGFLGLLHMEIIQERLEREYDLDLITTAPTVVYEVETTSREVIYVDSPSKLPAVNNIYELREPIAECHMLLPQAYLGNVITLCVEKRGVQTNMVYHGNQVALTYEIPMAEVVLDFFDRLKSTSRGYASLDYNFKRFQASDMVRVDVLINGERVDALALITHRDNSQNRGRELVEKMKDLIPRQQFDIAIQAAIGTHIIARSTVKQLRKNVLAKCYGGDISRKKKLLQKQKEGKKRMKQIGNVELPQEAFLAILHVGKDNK
Hpt, sequence (P0A9M2 whole entry): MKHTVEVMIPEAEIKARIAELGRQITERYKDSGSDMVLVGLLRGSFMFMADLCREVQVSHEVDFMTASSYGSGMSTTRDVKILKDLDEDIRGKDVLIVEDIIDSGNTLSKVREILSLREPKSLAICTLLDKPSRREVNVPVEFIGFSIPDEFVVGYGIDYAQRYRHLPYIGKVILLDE
SaRF3 (PrfC from S. aureus), sequence (A6QFN0 whole entry): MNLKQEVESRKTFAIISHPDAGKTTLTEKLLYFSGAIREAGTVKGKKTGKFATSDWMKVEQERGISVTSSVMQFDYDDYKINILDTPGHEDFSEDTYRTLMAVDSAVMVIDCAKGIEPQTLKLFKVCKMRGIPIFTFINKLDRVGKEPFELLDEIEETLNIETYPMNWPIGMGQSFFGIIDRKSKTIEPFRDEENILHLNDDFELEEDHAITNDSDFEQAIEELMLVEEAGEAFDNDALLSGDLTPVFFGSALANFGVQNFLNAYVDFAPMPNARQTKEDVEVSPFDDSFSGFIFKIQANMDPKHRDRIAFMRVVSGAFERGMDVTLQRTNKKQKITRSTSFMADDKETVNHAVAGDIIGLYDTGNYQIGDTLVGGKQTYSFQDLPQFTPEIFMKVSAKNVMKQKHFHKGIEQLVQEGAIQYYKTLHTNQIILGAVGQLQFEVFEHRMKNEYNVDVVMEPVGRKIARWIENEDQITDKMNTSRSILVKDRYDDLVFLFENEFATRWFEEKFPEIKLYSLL
RF3 (PrfC), sequence (P0A7I4 whole entry): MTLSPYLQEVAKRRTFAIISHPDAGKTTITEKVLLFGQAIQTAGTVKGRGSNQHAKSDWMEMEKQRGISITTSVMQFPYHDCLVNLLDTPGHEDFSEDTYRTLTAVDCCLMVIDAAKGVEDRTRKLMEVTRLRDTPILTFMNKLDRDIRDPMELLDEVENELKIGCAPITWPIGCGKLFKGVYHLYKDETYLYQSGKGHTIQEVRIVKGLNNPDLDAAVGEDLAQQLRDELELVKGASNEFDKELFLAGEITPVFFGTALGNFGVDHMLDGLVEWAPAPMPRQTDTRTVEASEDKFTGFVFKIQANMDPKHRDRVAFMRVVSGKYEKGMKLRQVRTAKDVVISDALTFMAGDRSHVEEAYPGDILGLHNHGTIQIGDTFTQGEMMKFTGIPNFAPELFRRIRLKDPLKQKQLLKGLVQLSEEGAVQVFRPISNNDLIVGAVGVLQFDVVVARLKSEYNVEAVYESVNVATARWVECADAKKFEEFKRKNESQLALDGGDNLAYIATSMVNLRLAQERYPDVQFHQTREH
NadR, sequence (P27278 whole entry): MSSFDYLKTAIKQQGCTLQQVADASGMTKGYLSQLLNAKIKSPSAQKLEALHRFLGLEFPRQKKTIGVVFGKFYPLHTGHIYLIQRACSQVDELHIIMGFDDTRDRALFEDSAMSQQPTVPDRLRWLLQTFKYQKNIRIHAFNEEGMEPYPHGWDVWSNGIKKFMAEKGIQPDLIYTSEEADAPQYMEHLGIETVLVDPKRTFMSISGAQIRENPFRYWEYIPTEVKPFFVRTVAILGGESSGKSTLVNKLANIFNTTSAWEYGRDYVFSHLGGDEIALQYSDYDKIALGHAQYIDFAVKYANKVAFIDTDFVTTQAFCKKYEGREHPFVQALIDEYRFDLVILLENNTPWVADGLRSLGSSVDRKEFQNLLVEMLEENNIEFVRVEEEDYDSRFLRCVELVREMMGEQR
TrmE, sequence (P25522 whole entry): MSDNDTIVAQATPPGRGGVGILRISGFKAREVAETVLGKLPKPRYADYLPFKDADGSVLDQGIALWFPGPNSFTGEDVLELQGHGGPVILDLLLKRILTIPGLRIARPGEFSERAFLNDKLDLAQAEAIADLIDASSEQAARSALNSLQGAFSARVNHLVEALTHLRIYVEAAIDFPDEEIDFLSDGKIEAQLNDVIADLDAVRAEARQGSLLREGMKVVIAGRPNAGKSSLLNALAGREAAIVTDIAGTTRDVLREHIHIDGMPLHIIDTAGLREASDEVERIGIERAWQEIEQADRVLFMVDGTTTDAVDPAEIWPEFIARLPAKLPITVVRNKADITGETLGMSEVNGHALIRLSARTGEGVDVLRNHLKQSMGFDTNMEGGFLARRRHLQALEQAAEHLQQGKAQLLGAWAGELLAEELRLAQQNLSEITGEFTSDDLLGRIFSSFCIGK
SaDer, sequence (A6QH24 whole entry): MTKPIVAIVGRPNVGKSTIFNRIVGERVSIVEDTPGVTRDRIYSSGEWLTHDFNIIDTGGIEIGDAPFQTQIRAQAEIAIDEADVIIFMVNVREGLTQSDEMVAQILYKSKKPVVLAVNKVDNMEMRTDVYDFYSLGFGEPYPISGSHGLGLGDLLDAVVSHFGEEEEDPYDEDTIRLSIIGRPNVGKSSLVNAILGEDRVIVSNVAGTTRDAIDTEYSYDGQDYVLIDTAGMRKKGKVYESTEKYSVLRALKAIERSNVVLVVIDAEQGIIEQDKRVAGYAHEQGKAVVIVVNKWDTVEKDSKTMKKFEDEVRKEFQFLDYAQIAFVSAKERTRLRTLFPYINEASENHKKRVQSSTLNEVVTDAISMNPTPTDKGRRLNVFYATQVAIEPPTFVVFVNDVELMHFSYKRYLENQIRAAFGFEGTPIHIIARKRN

SMILES | Kd (Hpt) [µM] | cleavage by NudG (NudG) | Ki (PPX) [µM] | Kd (ObgE [1]) [µM] | conversion by GppA (GppA) | Kd (HflX) [µM] | Kd (HprT) [µM] | Kd (Era) [µM] | Kd (RF3 (PrfC)) [µM] | cleavage by TrmE (TrmE) | binding to SaRF3 [2] | IC50 (Gpt) | IC50 (Gmk) [µM] | relative binding to LepA (binding curves) (LepA) | Kd (SpeC) [µM] | Ki (ObgE [3]) [µM] | Kd (SaDer) [µM] | cleavage by NadR (NadR)
Nc1nc2c(ncn2[C@@H]2O[C@H](COP(=O)(O)OP(=O)(O)OP(=O)(O)O)[C@@H](OP(=O)(O)OP(=O)(O)O)[C@H]2O)c(=O)[nH]1 [pppGpp, guanosine pentaphosphate] | 6.2 ± 0.8 | degraded into smaller products | 10 | 6.6 | Convert pppGpp to ppGpp; (17) | 13.6 | 0.75 | 3.85 | 15 ± 5 |  |  |  |  |  |  |  |  | 
Nc1nc2c(ncn2[C@@H]2O[C@H](COP(=O)(O)OP(=O)(O)O)[C@@H](OP(=O)(O)OP(=O)(O)O)[C@H]2O)c(=O)[nH]1 [ppGpp, guanosine tetraphosphate] | 6.1 ± 0.9 | degraded into smaller products; also recorded: relatively weak ppGpp cleavage activity | 200 | 1.8 ± 0.3 |  | 0.87 ± 0.15 | 0.37 | 0.95 ± 0.06 | 0.82 ± 0.09 | converted most of ppGpp | very weak binding (if any); also recorded: No binding of ppGpp by 12 µM of PrfC from S. aureus | ~85 µM and 85 µM | 20 | tighter binding of ppGpp than pppGpp; also recorded: ND; stronger binding to ppGpp than pppGpp | 0.598 ± 0.068 | 1.6 | 3.8 ± 0.5 | converted most of ppGpp
